Values quoted from earlier work as cited in US10973866B2, “Compositions and methods for treating, inhibiting the onset, and slowing the progression of erectile dysfunction including naturally occurring age related erectile dysfunction” (K.L.R.M., LLC, priority 2010, dated 2021).

Key:
erectile function = conditions: men in their 30's with normal erectile function
[1] = human, in vivo

CCCc1nn(C)c2c(=O)[nH]c(-c3cc(S(=O)(=O)N4CCN(C)CC4)ccc3OCC)nc12 [Viagra]
erectile function as measured by the IIEF (erectile function): increased erectile function
refractory period (erectile function): decrease in the refractory period

NC(=O)NCCC[C@H](N)C(=O)O [L-citrulline]
side effects [1]: no known side effects
